From patent US20070249670A1, “Glycogen Phosphorylase Inhibitor Compounds and Pharmaceutical Compositions Thereof” (SMITHKLINE BEECHAM CORPORATION, priority 2004, published 2007)

Biological target: T1, human liver glycogen phosphorylase a (HLGPa) (Homo sapiens, UniProt P06737)
T1 construct: creating a full-length cDNA fused at the 5′ end to codons for methionine-glycine-alanine-histidine; 6xHis tag (leader Met-Gly-Ala-His6-Gly-Gly) (N); made in house; host or cells: E. coli (bacterial expression plasmid pTXK1007LTev)
T1 sequence (P06737 2-847 limits assumed): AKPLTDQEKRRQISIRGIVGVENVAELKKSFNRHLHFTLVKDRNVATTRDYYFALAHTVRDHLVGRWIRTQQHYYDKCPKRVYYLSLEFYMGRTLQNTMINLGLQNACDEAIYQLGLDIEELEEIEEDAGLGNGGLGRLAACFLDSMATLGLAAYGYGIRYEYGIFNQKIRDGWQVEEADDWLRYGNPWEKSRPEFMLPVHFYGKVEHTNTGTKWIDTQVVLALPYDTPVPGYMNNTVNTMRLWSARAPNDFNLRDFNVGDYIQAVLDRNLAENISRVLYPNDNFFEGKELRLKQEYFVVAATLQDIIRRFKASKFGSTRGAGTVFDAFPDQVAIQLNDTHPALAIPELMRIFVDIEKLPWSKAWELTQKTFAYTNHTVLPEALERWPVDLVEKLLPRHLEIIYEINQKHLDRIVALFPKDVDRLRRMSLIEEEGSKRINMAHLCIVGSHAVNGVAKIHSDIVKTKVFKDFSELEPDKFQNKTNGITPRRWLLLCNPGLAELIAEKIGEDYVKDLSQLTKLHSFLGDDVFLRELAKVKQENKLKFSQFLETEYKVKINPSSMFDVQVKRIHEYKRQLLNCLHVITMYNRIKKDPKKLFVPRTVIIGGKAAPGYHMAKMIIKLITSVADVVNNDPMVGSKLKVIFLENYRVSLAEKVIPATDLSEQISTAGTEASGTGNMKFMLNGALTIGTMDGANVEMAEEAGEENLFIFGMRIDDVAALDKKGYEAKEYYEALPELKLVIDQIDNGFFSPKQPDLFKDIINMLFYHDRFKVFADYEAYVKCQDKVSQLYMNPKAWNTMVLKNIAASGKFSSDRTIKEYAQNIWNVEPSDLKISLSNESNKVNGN
Assay: Human liver glycogen phosphorylase a enzymatic activity assay (coupled, fluorescent resorufin readout, with and without 10 mM glucose)
Type: biochemical
Conditions: human liver glycogen phosphorylase a; table does not say whether with or without 10 mM glucose

| Structure (SMILES) | IC50 [nM] |
| --- | --- |
| Cc1cc(C)c(NC(=O)Nc2cc3ccccc3cc2C(=O)N[C@H](C(=O)O)[C@H]2CCCC(O)C2)c(C)c1 (stereo partly drawn) [Example 359, (2S)-[(1S)-3-hydroxycyclohexyl]({[3-({[(2,4,6-trimethylphenyl)amino]carbonyl}amino)-2-naphthalenyl]carbonyl}amino)ethanoic acid] | 6 |
| Cc1cc(C)c(NC(=O)Nc2cc3ccccc3cc2C(=O)N[C@H](C(=O)O)[C@H]2CCCC(OC(=O)C(F)(F)F)C2)c(C)c1 (stereo partly drawn) [Example 360, (2S)-{(1S)-3-[(trifluoroacetyl)oxy]cyclohexyl}({[3-({[(2,4,6-trimethylphenyl)amino]carbonyl}amino)-2-naphthalenyl]carbonyl}amino)ethanoic acid] | 11 |
| COc1ccc(-c2ccc(C(=O)N[C@@H](CC(=O)OC(C)(C)C)C(=O)OC(C)(C)C)c(NC(=O)Nc3c(C)cc(C)cc3C)c2)cc1 [Example 361, bis(1,1-dimethylethyl) N-{[4′-(methyloxy)-3-({[(2,4,6-trimethylphenyl)amino]carbonyl}amino)-4-biphenylyl]carbonyl}-L-aspartate] | 6070 |
| COc1ccc(-c2ccc(C(=O)N[C@@H](CC(=O)O)C(=O)O)c(NC(=O)Nc3c(C)cc(C)cc3C)c2)cc1 [Example 362, N-{[4′-(methyloxy)-3-({[(2,4,6-trimethylphenyl)amino]carbonyl}amino)-4-biphenylyl]carbonyl}-L-aspartic acid] | 6 |
| CCOC(=O)C[C@H](NC(=O)c1cc2ccccc2cc1NC(=O)Nc1c(C)cc(C)cc1C)C(=O)O [Example 363, (2S)-4-(ethyloxy)-4-oxo-2-({[3-({[(2,4,6-trimethylphenyl)amino]carbonyl}amino)-2-naphthalenyl]carbonyl}amino)butanoic acid] | 360 |
| O=C(O)C[C@H](NC(=O)c1ccc(F)cc1NC(=O)Nc1c(Cl)cccc1Cl)C(=O)O [Example 364, N-{[2-({[(2,6-dichlorophenyl)amino]carbonyl}amino)-4-fluorophenyl]carbonyl}-L-aspartic acid] | 1280 |
| Cc1cc(C)c(NC(=O)Nc2cc(F)ccc2C(=O)N[C@@H](CC(=O)O)C(=O)O)c(C)c1 [Example 365, N-{[4-fluoro-2-({[(2,4,6-trimethylphenyl)amino]carbonyl}amino)phenyl]carbonyl}-L-aspartic acid] | 1680 |
| CCOC(=O)C[C@H](NC(=O)c1ccc(-c2ccc(OC)cc2)cc1NC(=O)Nc1c(C)cc(C)cc1C)C(=O)OCc1ccccc1 [Example 366, 4-ethyl 1-(phenylmethyl)N-{[4′-(methyloxy)-3-({[(2,4,6-trimethylphenyl)amino]carbonyl}amino)-4-biphenylyl]carbonyl}-L-aspartate] | 11100 |
| CCOC(=O)C[C@H](NC(=O)c1ccc(-c2ccc(OC)cc2)cc1NC(=O)Nc1c(C)cc(C)cc1C)C(=O)O [Example 367, (2S)-4-(ethyloxy)-2-({[4′-(methyloxy)-3-({[(2,4,6-trimethylphenyl)amino]carbonyl}amino)-4-biphenylyl]carbonyl}amino)-4-oxobutanoic acid] | 640 |
| CCOC(=O)C[C@H](NC(=O)c1ccc(-c2ccc(OC)cc2)cc1NC(=O)Nc1c(C)cc(Br)cc1C)C(=O)OCc1ccccc1 [Example 368, 4-ethyl 1-(phenylmethyl) N-{[3-({[(4-bromo-2,6-dimethylphenyl)amino]carbonyl}amino)-4′-(methyloxy)-4-biphenylyl]carbonyl}-L-aspartate] | 5580 |
| CCCc1cc(C)c(NC(=O)Nc2cc(-c3ccc(OC)cc3)ccc2C(=O)N[C@@H](CC(=O)OCC)C(=O)O)c(C)c1 [Example 369, (2S)-2-({[3-({[(2,6-dimethyl-4-propylphenyl)amino]carbonyl}amino)-4′-(methyloxy)-4-biphenylyl]carbonyl}amino)-4-(ethyloxy)-4-oxobutanoic acid] | 94 |
| CCCc1cc(C)c(NC(=O)Nc2cc(-c3ccc(OC)cc3)ccc2C(=O)N[C@@H](CC(=O)O)C(=O)O)c(C)c1 [Example 370, N-{[3-({[(2,6-dimethyl-4-propylphenyl)amino]carbonyl}amino)-4′-(methyloxy)-4-biphenylyl]carbonyl}-L-aspartic acid] | 2 |
| COC(=O)[C@H](CC(=O)OC(C)(C)C)NC(=O)c1ccc(-c2ccc(OC)cc2)cc1NC(=O)Nc1c(C)cc(C)cc1C [Example 371, 4-(1,1-dimethylethyl) 1-methyl N-{[4′-(methyloxy)-3-({[(2,4,6-trimethylphenyl)amino]carbonyl}amino)-4-biphenylyl]carbonyl}-L-aspartate] | 13500 |
| COC(=O)[C@H](CC(=O)O)NC(=O)c1ccc(-c2ccc(OC)cc2)cc1NC(=O)Nc1c(C)cc(C)cc1C [Example 372, (3S)-4-(methyloxy)-3-({[4′-(methyloxy)-3-({[(2,4,6-trimethylphenyl)amino]carbonyl}amino)-4-biphenylyl]carbonyl}amino)-4-oxobutanoic acid] | 990 |
| Cc1cc(C)c(NC(=O)Nc2cc(-c3ccc(F)c(F)c3)ccc2C(=O)N[C@H](C(=O)O)[C@@H](C)OC(C)(C)C)c(C)c1 [Example 373, N-{[3′,4′-difluoro-3-({[(2,4,6-trimethylphenyl)amino]carbonyl}amino)-4-biphenylyl]carbonyl}-O-(1,1-dimethylethyl)-L-threonine] | 5 |
| CCOC(=O)C[C@H](NC(=O)c1ccc(-c2ccc(F)c(F)c2)cc1NC(=O)Nc1c(C)cc(C)cc1C)C(=O)O [Example 374, (2S)-2-({[3′,4′-difluoro-3-({[(2,4,6-trimethylphenyl)amino]carbonyl}amino)-4-biphenylyl]carbonyl}amino)-4-(ethyloxy)-4-oxobutanoic acid] | 820 |
| Cc1cc(C)c(NC(=O)Nc2cc(-c3ccc(F)c(F)c3)ccc2C(=O)N[C@@H](CC(=O)O)C(=O)O)c(C)c1 [Example 375, N-{[3′,4′-difluoro-3-({[(2,4,6-trimethylphenyl)amino]carbonyl}amino)-4-biphenylyl]carbonyl}-L-aspartic acid] | 43 |
| Cc1cc(C)c(NC(=O)Nc2cc(-c3ccc(F)c(F)c3)ccc2C(=O)N[C@H](CC(=O)O)C(=O)O)c(C)c1 [Example 376, N-{[3′,4′-difluoro-3-({[(2,4,6-trimethylphenyl)amino]carbonyl}amino)-4-biphenylyl]carbonyl}-D-aspartic acid] | 110 |
| COC(=O)[C@H](CC(N)=O)NC(=O)c1ccc(-c2ccc(OC)cc2)cc1NC(=O)Nc1c(C)cc(C)cc1C [Example 377, methyl N^2-{[4′-(methyloxy)-3-({[(2,4,6-trimethylphenyl)amino]carbonyl}amino)-4-biphenylyl]carbonyl}-L-asparaginate] | 9130 |
| COc1ccc(-c2ccc(C(=O)N[C@@H](CC(N)=O)C(=O)O)c(NC(=O)Nc3c(C)cc(C)cc3C)c2)cc1 [Example 378, N^2-{[4′-(methyloxy)-3-({[(2,4,6-trimethylphenyl)amino]carbonyl}amino)-4-biphenylyl]carbonyl}-L-asparagine] | 100 |
| Cc1cc(C)c(NC(=O)Nc2cc(-c3ccc(F)c(F)c3)ccc2C(=O)N[C@@H](CCC(=O)O)C(=O)O)c(C)c1 [Example 379, N-{[3′,4′-difluoro-3-({[(2,4,6-trimethylphenyl)amino]carbonyl}amino)-4-biphenylyl]carbonyl}-L-glutamic acid] | 84 |
| COc1ccc(-c2ccc(C(=O)O)c(NC(=O)Nc3c(C)cc(C)cc3C)c2)cc1 [Example 380, 4′-(methyloxy)-3-({[(2,4,6-trimethylphenyl)amino]carbonyl}amino)-4-biphenylcarboxylic acid] | 1990 |
| COc1ccc(-c2ccc(C(=O)O)c(NC(=O)Nc3c(Cl)cc(OC(F)(F)F)cc3Cl)c2)cc1 [Example 381, 3-{[({2,6-dichloro-4-[(trifluoromethyl)oxy]phenyl}amino)carbonyl]amino}-4′-(methyloxy)-4-biphenylcarboxylic acid] | 3420 |
| O=C(Nc1sc(-c2ccccc2)cc1C(=O)O)Nc1c(Cl)cccc1Cl [Example 382, 2-({[(2,6-dichlorophenyl)amino]carbonyl}amino)-5-phenyl-3-thiophenecarboxylic acid] | 1170 |
| COC(=O)[C@@H](NC(=O)c1cc(-c2ccccc2)sc1NC(=O)Nc1c(Cl)cccc1Cl)C1CCCCC1 [Example 383, methyl(2S)-cyclohexyl({[2-({[(2,6-dichlorophenyl)amino]carbonyl}amino)-5-phenyl-3-thienyl]carbonyl}amino)ethanoate] | 2370 |
| O=C(Nc1sc(-c2ccccc2)cc1C(=O)N[C@H](C(=O)O)C1CCCCC1)Nc1c(Cl)cccc1Cl [Example 384, (2S)-cyclohexyl({[2-({[(2,6-dichlorophenyl)amino]carbonyl}amino)-5-phenyl-3-thienyl]carbonyl}amino)ethanoic acid] | 230 |
